Experimental data: patent US7671251B2, “In vivo assay for neurite outgrowth in zebrafish and its application in drug screening” (Academia Sinica, priority 2005, dated 2010)

What was measured:
[1] = test system: PC12D cells; conditions: PC12D cells (Li et al., 2004); cited from earlier work
[2] = test system: HBNF-induced neurite outgrowth; assay: modified in vivo neurite outgrowth assay in zebrafish embryos, inhibition by injected heparin; conditions: heparin injected into zebrafish embryo at two- or four-cell stage; data not shown
Description: As mentioned above, we modified the in vivo neurite outgrowth assay in zebrafish embryos to investigate the inhibitory effect of heparin or heparan sulfate on HBNF-induced neurite outgrowth by further injection of different dosage of heparin or heparan sulfate into zebrafish embryo at two- or four-cell stage. […] Therefore, the modified assay system also can be used to compare the inhibitory or enhancing effect of HBNF/PTN-induced neurite outgrowth in vivo by heparin and its modified forms, N-syndecan-derived saccharides, and other glycosaminoglycans.

[3] = test system: fluorescent blood vessels; conditions: transgenic fluorescent embryos (Parng et al., 2002); cited from earlier work
[4] = test system: NGF-induced neurite outgrowth; conditions: Feng et al., 2004; cited from earlier work
[5] = test system: cultured neurons; conditions: cultured neurons / neuronal cells (Raulo et al., 1994; Kinnunen et al., 1996; Rauvala et al., 1997); cited from earlier work
[6] = test system: GFP-labeled neurons in zebrafish embryos; assay: in vivo neurite outgrowth promotion assay, expression construct coinjected with pHuC-GFP into zebrafish embryos; set-up: species or system Zebrafish (Danio rerio); conditions: expression construct coinjected with pHuC-GFP at one-cell stage; observed at 48 or 72 hpf
Procedure: The expression construct pcDNA-HBNF-HA and pHuC-GFP (panels 2, 5-7) were coinjected into zebrafish embryos at 1-cell stage. Similar injection of pHuC-GFP alone (panel 1) was used as control. Zebrafish embryos at 72 h postfertilization with GFP fluorescence were selected for image analysis. Embryos are shown as lateral view with anterior to the left. Experiments were repeated at least three times and at least 100 fertilized eggs were used for injection of expression constructs at each time. Four representative patterns with significant enhancement of neurite outgrowth (panels 2, 5-7) were shown. Images of bright field and fluorescence were merged and shown in panels 1, 2, and 5-7, while fluorescence images only in panels 3, 4, 8-10. Higher magnification of two regions marked with yellow boxes in panel 2 was shown in panel 3 and 4, respectively. N, notochord; DF, dorsal fin; VF, ventral fin. Scale bars represent 100 μm.
The expression construct pcDNA-NGF-HA and pHuC-GFP were coinjected into zebrafish embryos at 1-cell stage. Similar injection of pHuC-GFP alone was used as control. Zebrafish embryos at 72 hpf with GFP fluorescence were selected for image analysis. Embryos are shown as lateral view with anterior to the left. Images of bright field and fluorescence were merged and shown in panel 1, while fluorescence images only in panel 2. Higher magnification of the head region and tail region with significant neurite outgrowth in panel 2 was shown in panels 3 and 4, respectively.
The expression construct pGFAP-GDNF-HA and pHuC-GFP were coinjected into zebrafish embryos at 1-cell stage. Similar injection of pHuC-GFP alone was used as control. Zebrafish embryos at 48 hpf with GFP fluorescence were selected for image analysis. […] Images of bright field and fluorescence were merged and shown in panel 1, while fluorescence images only in panel 2. […]
Zebrafish (Danio rerio) were maintained at 28° C. on a 14 h-light/10 h-dark cycle. Embryos were incubated at 28° C. and different developmental stages were determined according to the description in Zebrafish Book (Westerfield, 1995). […]

[7] = test system: PC12 cells; assay: neurite outgrowth in PC12 cells transfected with pcDNA-HBNF-HA; assay type: cell-based, rat; conditions: transfected HBNF cDNA under CMV promoter, without NGF stimulation, 72 h posttransfection
[8] = test system: neuro2A neuroblastoma cells; conditions: Hiwasa et al., 1997; cited from earlier work
[9] = infused directly in putamen (Gill et al., 2003); cited from earlier work

CC(=O)O[C@@H]1[C@@H](O)[C@H](C)O[C@@H](OC[C@H]2O[C@@H](Oc3cc(O)c4c(=O)cc(-c5ccc(O)cc5)oc4c3)[C@H](O)[C@@H](O)[C@@H]2O)[C@@H]1OC(C)=O [Compound 3, apigenin 7-O-alpha-L-2,3-di-O-acetylrhamnopyranosyl-(1→6)-beta-D-glucopyranoside]
enhancing activity of nerve growth factor-mediated neurite outgrowth [1]: enhancing activity

heparin
inhibitory effect on HBNF-induced neurite outgrowth [2]: inhibit HBNF-induced neurite outgrowth

Cc1[nH]c(/C=C2\C(=O)Nc3ccccc32)c(C)c1CCC(=O)O [SU-6668]
inhibition of angiogenesis [3]: inhibit angiogenesis

CC(=O)O[C@@H]1[C@@H](O)[C@H](C)O[C@@H](OC[C@H]2O[C@@H](Oc3cc(O)c4c(=O)cc(-c5ccc(O)cc5)oc4c3)[C@H](O)[C@@H](O)[C@@H]2O)[C@@H]1O [Compound 2, apigenin 7-O-alpha-L-3-O-acetylrhamnopyranosyl-(1→6)-beta-D-glucopyranoside]
enhancing activity of nerve growth factor-mediated neurite outgrowth [1]: enhancing activity

COC(=O)[C@]1(O)C[C@H]2O[C@]1(C)n1c3ccc(O)c(N)c3c3c4c(c5c6ccccc6n2c5c31)C(=O)NC4=O [Indocarbazostatin D]
inhibition of NGF-induced neurite outgrowth [4]: inhibitors of NGF-induced neurite outgrowth

COC(=O)[C@]1(O)C[C@H]2O[C@]1(C)n1c3ccc(O)cc3c3c4c(c5c6ccccc6n2c5c31)C(=O)NC4=O [Indocarbazostatin C, Indocarbazostatins C]
inhibition of NGF-induced neurite outgrowth [4]: inhibitors of NGF-induced neurite outgrowth

low molecular weight heparin
inhibition of HBNF/PTN-induced neurite outgrowth [5]: more potent inhibition

B1: zebrafish HBNF: zebrafish heparin-binding neurotrophic factor (SEQ ID NO: 1) expressed from pcDNA-HBNF-HA (protein)
chain: MQQQWVCVALLALLTVTATLADGGKTEKQGKKERKSDCGEWQWSVCVANEGDCGLGIREGTRSGNDCKQTIKTQRCKIPCNWKKQFGGECKYDFQAWGECDSTTGMKTRTGVLKRALMDANCPNTVSATKPCGKPKTKMQDSQKPKRDGKKKERNPTD
modifications: HA tag; Danio rerio
enhancement of neurite outgrowth in zebrafish embryos [6]: enhance extensive neurite outgrowth
neurite outgrowth in PC12 cells [7]: induce significant neurite outgrowth

B2: recombinant GDNF: recombinant glial-derived neurotrophic factor (Hiwasa et al., 1997) (protein, UniProt P39905 78-211, looked up)
Glial cell line-derived …: SPDKQMAVLPRRERNRQAAAANPENSRGKGRRGQRGKNRGCVLTAIHLNVTDLGLGYETKEELIFRYCSGSCDAAETTYDKILKNLSRNRRLVSDKVGQACCRPIAFDDDLSFLDDNLVYHILRKHSAKRCGCI
neurite outgrowth of neuro2A neuroblastoma cells [8]: induce neurite outgrowth

B3: GDNF: glial-derived neurotrophic factor infused directly in putamen in a clinical trial (protein, UniProt P39905 78-211, looked up)
Glial cell line-derived …: SPDKQMAVLPRRERNRQAAAANPENSRGKGRRGQRGKNRGCVLTAIHLNVTDLGLGYETKEELIFRYCSGSCDAAETTYDKILKNLSRNRRLVSDKVGQACCRPIAFDDDLSFLDDNLVYHILRKHSAKRCGCI
side-effects [9]: does not have significant side-effects
treatment effect in Parkinson disease [9]: effective treatment for Parkinson disease

B4: zebrafish NGF: zebrafish nerve growth factor expressed from pCMV-NGF-HA (protein, UniProt Q6YBR5 77-194, looked up)
Nerve growth factor: KAGPPQHRGVYSVCESISHWEGNKTKATDITGNEVTVLPDVIINNSKKKQYFFETTCSSGRTGGSGCLGIDARHWNSYCTNSHTFVRALTSFKNLVAWRLIRINVACVCVLSRKSWRA
modifications: HA tag
notes: zebrafish nerve growth factor expressed from pCMV-NGF-HA
enhancement of neurite outgrowth in zebrafish embryos [6]: induce extensive neurite outgrowth

B5: zebrafish GDNF: zebrafish glial-derived neurotrophic factor expressed in glia cells from pGFAP-GDNF-HA (protein, UniProt Q98TU0 90-235, looked up)
Glial cell line-derived …: SSDVEPQMKRDRVRQKAAANTEKSGGRGRGERKRSRGRARSRDDRVKGQGRGCLLKEIHLNVTDLDLGYRTKEELIFRYCSGPCHDAETNYDKILNNLTHNKKLDKDTPSRTCCRPIAFDDDISFLDDSLEYHTLKKHSAKKCACV
modifications: HA tag
notes: zebrafish glial-derived neurotrophic factor expressed in glia cells from pGFAP-GDNF-HA
enhancement of neurite outgrowth in zebrafish embryos [6]: induce extensive neurite outgrowth
